The target of data set [1] is Beta-2 adrenergic receptor (Homo sapiens, UniProt P07550). The data set can be described thus: Binding affinity for clone human Beta-2 adrenergic receptor from CHO cell membranes in the presence of I-iodocyanopindolol.
The target in data set [2] is T1, Beta-3 adrenergic receptor (Homo sapiens, UniProt P13945). Description: Tested in vitro for its ability to stimulate increase in cAMP in CHO cells expressing the cloned human beta-3 adrenergic receptor. Type of data set: functional, cell-based.
Target sequence in this assay (P13945 whole entry): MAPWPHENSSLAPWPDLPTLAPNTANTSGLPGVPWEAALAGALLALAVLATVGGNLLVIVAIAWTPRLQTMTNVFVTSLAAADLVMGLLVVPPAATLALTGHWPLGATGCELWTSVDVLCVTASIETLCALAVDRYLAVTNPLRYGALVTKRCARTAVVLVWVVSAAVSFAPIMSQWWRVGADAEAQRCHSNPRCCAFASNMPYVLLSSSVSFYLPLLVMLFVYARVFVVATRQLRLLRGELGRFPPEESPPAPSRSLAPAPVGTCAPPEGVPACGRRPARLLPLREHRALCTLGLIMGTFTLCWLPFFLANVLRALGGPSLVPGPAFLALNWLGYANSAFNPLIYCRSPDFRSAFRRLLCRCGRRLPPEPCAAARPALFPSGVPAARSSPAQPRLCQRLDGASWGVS
Data set [3] addresses T1, Beta-3 adrenergic receptor. The data set can be described thus: Tested for Beta3 adrenergic receptor agonist activity by its ability to stimulate adenylyl cyclase activation as % of the maximal stimulation with isoproterenol. It is filed as functional.
Target sequence in this assay (P13945 whole entry, looked up): as the sequence (P13945 whole entry) above
In data set [4] the target is Beta-1 adrenergic receptor (Homo sapiens, UniProt P08588). The data set can be described thus: Binding affinity for cloned human Beta-1 adrenergic receptor expressed in CHO cells, tested in the presence of I-iodocyanopindolol. It is filed as cell-based.
Sequence of Beta-1 adrenergic receptor (P08588 whole entry): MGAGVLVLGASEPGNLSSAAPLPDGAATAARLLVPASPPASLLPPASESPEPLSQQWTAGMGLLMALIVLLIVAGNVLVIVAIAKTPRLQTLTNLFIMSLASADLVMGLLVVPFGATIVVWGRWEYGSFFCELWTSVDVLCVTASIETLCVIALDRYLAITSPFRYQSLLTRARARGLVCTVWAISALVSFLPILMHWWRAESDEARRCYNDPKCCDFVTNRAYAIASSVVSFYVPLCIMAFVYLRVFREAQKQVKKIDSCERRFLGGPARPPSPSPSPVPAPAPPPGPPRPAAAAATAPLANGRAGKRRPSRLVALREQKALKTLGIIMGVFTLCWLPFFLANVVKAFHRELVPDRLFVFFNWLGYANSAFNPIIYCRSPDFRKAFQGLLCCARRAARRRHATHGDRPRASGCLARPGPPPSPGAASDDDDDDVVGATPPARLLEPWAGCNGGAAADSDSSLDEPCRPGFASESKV
Data set [5] can be described thus: The compound was tested for half life in dog. It is filed as ADME, organism-based, Canis lupus familiaris. The settings on record: in vivo.
Data set [6] concerns Monkey. The data set can be described thus: Effective dose that produced hyperglycerolemia in anesthetized rhesus monkeys. It is filed as functional. Conditions: Cercopithecidae, in Macaca mulatta.
In data set [7] the test system is Monkey. The data set can be described thus: Compound was tested for separation between lipolytic potency and tachycardia, as heart rate, effect was determined at highest dose of 10 mg/kg in rhesus monkeys. It is filed as functional, Cercopithecidae.
A short description of data set [8]: Oral bioavailability in dog. Conditions: in vivo. It is filed as ADME, organism-based, Canis lupus familiaris.
A short description of data set [9]: The half life was determined. It is filed as ADME, organism-based, Canis lupus familiaris. The settings on record: dog, in vivo.

Sequence of Beta-2 adrenergic receptor (P07550 whole entry): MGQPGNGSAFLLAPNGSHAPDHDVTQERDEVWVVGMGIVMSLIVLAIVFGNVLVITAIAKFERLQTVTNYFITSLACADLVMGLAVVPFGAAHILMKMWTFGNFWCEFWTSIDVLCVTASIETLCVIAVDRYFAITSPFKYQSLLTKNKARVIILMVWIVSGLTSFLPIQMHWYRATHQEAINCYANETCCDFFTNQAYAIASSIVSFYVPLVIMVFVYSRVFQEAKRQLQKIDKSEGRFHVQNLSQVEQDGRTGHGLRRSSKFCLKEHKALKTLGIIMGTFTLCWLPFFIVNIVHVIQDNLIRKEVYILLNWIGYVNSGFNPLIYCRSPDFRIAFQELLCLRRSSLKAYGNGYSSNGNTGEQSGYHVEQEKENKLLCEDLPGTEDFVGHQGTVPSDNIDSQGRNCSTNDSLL

For the molecule `O=S(=O)(Nc1ccc(CCNC[C@H](O)c2cccnc2)cc1)c1ccc(-n2ncc(COc3ccc(C(F)(F)F)cc3)n2)cc1`, the IC50 (in general, the point on the concentration scale where inhibition reaches its midpoint) in [1] turned out to be 0.73 µM; in [4], 0.92 µM. Also, the EC50 – broadly, the concentration that produces a half-maximal response – in data set [2] is 0.011 µM. The molecule also registered an Activation in data set [3] of 72%.

For `O=S(=O)(Nc1ccc(CCNC[C@H](O)c2cccnc2)cc1)c1ccc(-n2ncc(Cc3ccc(C(F)(F)F)cc3)n2)cc1`, the IC50 worked out at 4.7 µM in [1] and 20 µM in data set [4]. The half-life – broadly, how long it takes for the measured level to halve – in [5] is 6 h. In addition, the ED50 (usually the dose at which the effect has come halfway, by size or by number of responders) in the data set on Monkey [6] came out at 0.36 mg/kg. Besides, the Heart rate in the data set with Monkey [7] is given as less than 5%. For the same molecule, the EC50 in [2] was determined as 0.0031 µM. In addition, the Activation in data set [3] was 85%. Further, in data set [8] (read-out: Activity), the bioavailability is 25%.

With `O=S(=O)(Nc1ccc(CCNC[C@H](O)c2cccnc2)cc1)c1ccc(-n2ncc(COc3ccc(F)c(F)c3)n2)cc1`, the IC50 in data set [1] stood at 0.69 µM; in [4], 0.93 µM. In data set [2], it took 0.01 µM to reach a half-maximal effect (EC50). Further, in data set [3], the Activation was determined as 63%.

As for `O=C(c1ccc(F)cc1)c1cnn(-c2ccc(S(=O)(=O)Nc3ccc(CCNC[C@H](O)c4cccnc4)cc3)cc2)n1`, the EC50 in data set [2] was found to be 0.0064 µM.

For the molecule `O=S(=O)(Nc1ccc(CCNC[C@H](O)c2cccnc2)cc1)c1ccc(-n2ncc(Cc3c(F)cccc3F)n2)cc1`, the figures for the IC50 in data set [1] and in [4] were 5 µM and 28 µM, respectively. The molecule further showed an EC50 in data set [2] of 0.024 µM. The Activation in data set [3] was determined as 84%.

For `O=S(=O)(Nc1ccc(CCNC[C@H](O)c2cccnc2)cc1)c1ccc(-n2ncc(-c3ccc(F)cc3)n2)cc1`, the IC50 in [1] stood at 9.3 µM; in [4], 40 µM. Besides, in data set [2], the EC50 stood at 0.024 µM. The Activation in [3] was 91%.

For the molecule `O=S(=O)(Nc1ccc(CCNC[C@H](O)c2cccnc2)cc1)c1ccc(-n2ncc(Cc3ccc(OC(F)(F)F)cc3)n2)cc1`, the half-maximal inhibitory concentration (IC50) in data set [1] stood at 0.86 µM; in [4] it was 2.6 µM. Further, in data set [2], the EC50 was determined as 0.0041 µM. In [3], the Activation was 91%.

With `O=S(=O)(Nc1ccc(CCNC[C@H](O)c2cccnc2)cc1)c1ccc(-n2ncc(Cc3c(F)cc(F)cc3F)n2)cc1`, the values for the IC50 in data set [1] and in data set [4] were 8.8 µM and 10 µM, respectively. The molecule also displayed an EC50 in [2] of 0.048 µM. Also, the Activation in [3] is 83%.

`COc1ccc(-c2cnn(-c3ccc(S(=O)(=O)Nc4ccc(CCNC[C@H](O)c5cccnc5)cc4)cc3)n2)cc1F`: the IC50 in data set [1] was found to be 2.5 µM; in [4], 5.6 µM. The same molecule registered an EC50 in [2] of 0.022 µM. The molecule also registered an Activation in data set [3] of 80%.

Consider `O=S(=O)(Nc1ccc(CCNC[C@H](O)c2cccnc2)cc1)c1ccc(-n2ncc(C(O)c3ccc(F)cc3)n2)cc1` (stereo partly specified), for which, in data set [2], it took 0.0033 µM to reach a half-maximal effect (EC50).

For the molecule `CCCCCCNC(=O)Nc1ccc(S(=O)(=O)Nc2ccc(CCNC[C@H](O)c3cccnc3)cc2)cc1`, the bioavailability in [8] is less than 1%.

Turning to `O=S(=O)(Nc1ccc(CCNC[C@H](O)c2cccnc2)cc1)c1ccc(-n2ncc(-c3ccc(OC(F)(F)F)cc3)n2)cc1`, the values for the IC50 in data set [1] and in [4] were 1.6 µM and 1.3 µM, respectively. Moreover, the EC50 in data set [2] was found to be 0.018 µM. Besides, in data set [3], the Activation was 84%.

For `O=S(=O)(Nc1ccc(CCNC[C@H](O)c2cccnc2)cc1)c1ccc(-n2ncc(Cc3ccc(F)c(F)c3)n2)cc1`, the half-life in [9] was 4 h. In addition, the results for the IC50 in [1] and in data set [4] were 1 µM and 2 µM, respectively. Besides, the EC50 in [2] stood at 0.0072 µM. For the same molecule, in data set [3], the Activation was 86%. Besides, the bioavailability in [8] (read-out: Activity) is 38%.

For the molecule `O=S(=O)(Nc1ccc(CCNC[C@H](O)c2cccnc2)cc1)c1ccc(-n2ncc(COc3ccc(OC(F)(F)F)cc3)n2)cc1`, the figures for the IC50 in [1] and in [4] were 0.62 µM and 6.2 µM, respectively. In data set [2], this molecule gave an EC50 of 0.014 µM. In data set [3], this molecule had an Activation of 75%.

For `O=S(=O)(Nc1ccc(CCNC[C@H](O)c2cccnc2)cc1)c1ccc(-n2ncc(Cc3ccc(F)cc3)n2)cc1`, the figures for the IC50 in [1] and in data set [4] were 0.78 µM and 2.5 µM, respectively. This molecule also returned an EC50 in [2] of 0.014 µM. Moreover, in [3], the Activation came to 75%.

For `CCCCCCn1ccn(-c2ccc(S(=O)(=O)Nc3ccc(CCNC[C@H](O)c4cccnc4)cc3)cc2)c1=O` [L-764646], in data set [8], the bioavailability was 7%.

`O=S(=O)(Nc1ccc(CCNC[C@H](O)c2cccnc2)cc1)c1ccc(-n2ncc(-c3cccc(F)c3)n2)cc1`: the results for the IC50 in [1] and in data set [4] were 8.8 µM and 8.7 µM, respectively. Also, a half-maximal effect in data set [2] (EC50) was put at 0.052 µM. Further, the Activation in [3] came out at 89%.

On to `O=S(=O)(Nc1ccc(CCNC[C@H](O)c2cccnc2)cc1)c1ccc(-n2ncc(-c3ccc(F)c(F)c3)n2)cc1`, for which the values for the half-inhibitory concentration (IC50) in data set [1] and in [4] were 1.3 µM and 2.6 µM, respectively. This molecule yielded an EC50 in data set [2] of 0.014 µM. Also, the Activation in [3] worked out at 82%.

As to `O=S(=O)(Nc1ccc(CCNC[C@H](O)c2cccnc2)cc1)c1ccc(-n2ncc(Cc3cccc(F)c3)n2)cc1`, the IC50 in [1] stood at 0.38 µM; in data set [4] it was 3 µM. Besides, the EC50 in data set [2] is 0.0064 µM. Besides, the Activation in [3] came to 87%.

Molecule `O=S(=O)(Nc1ccc(CCNC[C@H](O)c2cccnc2)cc1)c1ccc(-n2ncc(-c3ccc(C(F)(F)F)cc3)n2)cc1` gave a half-life in data set [9] of 15 h. Further, the IC50 in data set [1] and in data set [4] was 21 µM in each case. In data set [2], this molecule had a concentration for a half-maximal effect (EC50) of 0.014 µM. Moreover, in data set [3], the Activation was found to be 90%. In data set [8], this molecule had a bioavailability of 18%.
